Experimental findings from the Deep4Chem optical property database are described below.

The data set in a line: solvent given as SMILES.

Compound `CCOC(=O)c1cc(C(=O)OCC)c2cc(C(=O)O)ccc2n1` returned an absorption maximum (in CCO) of 316 nm.

As to `O=c1c2cccc3cccc(c32)c2nc3c(F)c(F)c(F)c(F)c3n12`, the absorption maximum (in ClCCl) turned out to be 382 nm.

With `CCC1(CC)c2ccccc2-c2c1c1c(c3c2C(CC)(CC)c2cc(N(c4ccccc4)c4ccccc4)ccc2-3)C(CC)(CC)c2ccccc2-1`, the absorption maximum is listed as 356 nm (in C1CCOC1); 353 nm (in CC#N); 354 nm (in CC(C)=O); 356 nm (in CCCCCC); 360 nm (in Cc1ccccc1).

For the compound `O=S1(=O)C(c2cccs2)=C(c2cccs2)c2ccccc21`, the absorption maximum (in C1CCOC1) was 372 nm.

As for `CN(C)c1cccc(/C=C/c2ncc(-c3ccc(OCc4ccccc4)c(OCc4ccccc4)c3)o2)c1`, the absorption maximum (in ClCCl) was 350 nm.

Take `CCCCCCOc1cc2[nH]c(cc2CCOC)c2nc(ccc3[nH]c(cc3CCOC)c3nc1C(CCOC)=C3)C(CCOC)=C2`: under “in Cc1ccccc1”, the absorption maximum worked out at 684 nm.

In turn, `c1ccc(N(c2ccccc2)c2ccc(-c3ccc(-c4ccc(-c5cccs5)c5nsnc45)s3)cc2)cc1` had an absorption maximum (in ClC(Cl)Cl) of 495 nm.

`CCN(CC)c1ccc2c(-c3ccccc3C(=O)O)c3c([o+]c2c1)/C(=C/c1ccc(N(C)C)cc1)CCC3` yielded an absorption maximum (in ClCCl) of 689 nm.

For `F[B-]1(F)OC(c2ccc(N3CCCCC3)cc2)=Cc2cccc[n+]21`, the absorption maximum (in ClC(Cl)Cl) turned out to be 421 nm.

For the compound `COc1ccc(-c2cnc(C#Cc3ccccc3)o2)cc1OC`, the absorption maximum (in ClCCl) is recorded as 330 nm.

In the case of `Oc1cccc2ccccc12`, the absorption maximum (in C1CCCCC1) is listed as 303.49 nm.

As for `c1ccc2cc(-c3cc(-c4nccs4)nc(-c4nccs4)c3)ccc2c1`, the absorption maximum by setting is: (in CC#N) 323 nm; (in CCCCCC) 333 nm; (in CO) 333 nm; (in ClC(Cl)Cl) 329 nm.

As to `Nc1ccccc1/C=C/C(F)(F)F`, the absorption maximum (in C1CCOC1) is on record as 347 nm.

For the setting “in CC#N”, `Fc1ccc(/C=C/c2nc3c4ccccc4c4ccccc4c3o2)cc1` showed an absorption maximum of 363 nm.

With `CC(C)(C)c1ccc2c(c1)c1cc(C(C)(C)C)ccc1n2-c1ccc(-c2nc(-c3ccc(P(=O)(c4ccccc4)c4ccccc4)cc3)nc(-c3ccc(P(=O)(c4ccccc4)c4ccccc4)cc3)n2)cc1`, the absorption maximum (in C1CCOC1) came out at 364.73 nm; the absorption maximum (in CC#N) stood at 361.43 nm; the absorption maximum (in CC(C)=O) worked out at 366.18 nm; the absorption maximum (in CN(C)C=O) is reported as 365.92 nm; the absorption maximum (in Cc1ccccc1) came out at 375.96 nm; the absorption maximum (in ClC(Cl)Cl) is listed as 435.78 nm. Besides, the absorption maximum (in ClCCl) is 375.3 nm.

For the compound `CCCCN1C(=O)c2cccc3c(N(C)C)ccc(c23)C1=O`, the absorption maximum reads like this: (in CC#N) 416 nm; (in CS(C)=O) 428 nm; (in Cc1ccccc1) 403 nm.

With `Cc1ccc(-c2ccc3ccc4cc(C(C)(C)C)cc5ccc2c3c45)cc1`, the absorption maximum is 342 nm (in C1CCOC1) and 342 nm (in ClCCl).

Where the note is “in C1CCOC1”, `CCCCn1c2ccc(-c3cccs3)cc2c2c1c1c3ccc(-c4cccs4)cc3n(CCCC)c1c1c3ccc(-c4cccs4)cc3n(CCCC)c21` gave an absorption maximum of 337 nm.

`O=C1CCCC2=C1C(c1cccc(Cl)c1)c1c(c3ccccc3oc1=O)N2` (configuration not stated) came in with an absorption maximum (in CS(C)=O) of 373 nm.

On to `COc1ccc2c(c1)c1cc(OC)ccc1c1c2c2c(C(=O)NC(C)(C)C)ccc(C(=O)NC(C)(C)C)c2c2c3ccc(OC)cc3c3cc(OC)ccc3c21`, for which the absorption maximum (in ClCCl) is listed as 414 nm.

As for `COc1ccc(/C=C/C2=[O+][B-](F)(F)OC(/C=C/c3ccc(OC)cc3)=C2c2ccccc2)cc1`, the absorption maximum by setting is: (in CC#N) 500 nm; (in CC(C)=O) 500 nm; (in CCOC(C)=O) 496 nm; (in CCOCC) 491 nm; (in ClC(Cl)(Cl)Cl) 493 nm; (in ClCCl) 505 nm.

For `CCc1ccc(-n2c3ccccc3c3cc4c(cc32)c2ccccc2n4-c2ccc(CC)s2)s1`, where the note is “in ClC(Cl)Cl”, the absorption maximum is 398 nm.

Take `CCCCCCCCC(=O)Oc1cc2[nH]c(cc2CCOC)c2nc(ccc3[nH]c(cc3CCOC)c3nc1C(CCOC)=C3)C(CCOC)=C2`: the absorption maximum (in Cc1ccccc1) amounted to 647 nm.

As to `N#CSC1=CC2=C(c3ccccc3)c3ccc(SC#N)n3[B-](F)(F)[N+]2=C1N1CCOCC1`, the absorption maximum by setting is: (in CCCCCC) 560 nm; (in CCOC(C)=O) 554 nm; (in ClCCl) 558 nm.

Under “in C1CCCCC1”, `N#Cc1c(-c2ccccc2)cc(N2c3ccccc3Oc3ccccc32)cc1-c1ccccc1` yielded an absorption maximum of 398 nm.

Consider `COc1ccc(OC)c(C=O)c1`, for which the absorption maximum by setting is: (in C1CCOC1) 349 nm; (in C1COCCO1) 348 nm; (in CC#N) 349 nm; (in CC(C)=O) 349 nm; (in CCCO) 352 nm; (in CCO) 352 nm. Also, the absorption maximum reads like this: (in CN(C)C=O) 351 nm; (in CN(C)P(=O)(N(C)C)N(C)C) 352 nm; (in CNC=O) 352 nm; (in CO) 352 nm; (in CS(C)=O) 353 nm; (in ClC(Cl)Cl) 352 nm. Where the note is “in NC=O”, this compound yielded an absorption maximum of 356 nm.

For the setting “in CCO”, `CCOC(=O)/C=C/c1cc2ccc(-c3cn(Cc4ccccc4)nn3)cc2oc1=O` came in with an absorption maximum of 358 nm.

`N#Cc1c(N2CCCC2)cc(-c2ccccc2)c2c1-c1ccccc1C2=O` returned an absorption maximum (in C1CCOC1) of 392 nm.

With `O=C1/C(=C\c2ccc3oc4ccccc4c3c2)S(=O)(=O)c2ccccc21`, the absorption maximum reads like this: (in C1CCOC1) 368 nm; (in C1COCCO1) 369 nm; (in CC#N) 365 nm; (in CC(C)=O) 365 nm; (in CCOC(C)=O) 366 nm; (in CN(C)C=O) 367 nm. Moreover, the absorption maximum by setting is: (in CO) 367 nm; (in CS(C)=O) 369 nm; (in Cc1ccccc1) 373 nm; (in ClC(Cl)Cl) 378 nm; (in ClCCl) 372 nm.

Where the note is “in ClCCl”, `CCN(CC)c1ccc2c(c1)oc(=O)c1cc3c(-c4ccccc4)nn(C)c3nc12` registered an absorption maximum of 350 nm.

Take `CCCCCCCCCCCCOc1cc2c3c(ccc4c5c(NC6CCCCC6)cc6c7c(ccc(c1c34)c75)C(=O)N(C1CCCCC1)C6=O)C(=O)N(C1CCCCC1)C2=O`: for the setting “in ClC(Cl)Cl”, the absorption maximum is recorded as 640 nm.

With `O=P1(c2ccccc2)C2=C(c3ccccc31)C(c1ccccc1)(c1ccccc1)c1cc(N(c3ccccc3)c3ccccc3)ccc12` (configuration not stated), the absorption maximum amounted to 427 nm (in CC#N), 438 nm (in CO) and 431 nm (in Cc1ccccc1).

For the compound `CCCCCCCCCCCCOc1cc2c(cc1OCCCCCCCCCCCC)C1=C3C(=O)N4C=Cc5cc(OCCCCCCCCCCCC)c(OCCCCCCCCCCCC)cc5C4=C3C(=O)N1C=C2`, the absorption maximum reads like this: (in CN(C)C=O) 592 nm; (in ClC(Cl)Cl) 590 nm.

As for `CC1=[N+]2C(=C(c3ccc(N(c4ccccc4)c4ccccc4)cc3)c3ccc(C)n3[B-]2(F)F)C=C1c1cc2n(c1)[B-](F)(F)[N+]1=CC=CC1=C2c1c(C)cc(C)cc1C`, the absorption maximum reads like this: (in C1CCCCC1) 593 nm; (in CCOC(C)=O) 596 nm.

`CCOc1ccc2cc(-c3ccc(C)cc3)c(=O)oc2c1` had an absorption maximum (in C1CCOC1) of 342 nm, an absorption maximum (in CCCCCC) of 338 nm, an absorption maximum (in CCO) of 344 nm and an absorption maximum (in CS(C)=O) of 345 nm.

On to `CC(=O)N(Cc1ccccn1)c1c2ccccc2c2c3c(cccc13)C(=O)N(Cc1ccccn1)C2=O`, for which the absorption maximum was 436 nm (in C1CCOC1); 432 nm (in CCCCCC); 437 nm (in CCO); 437 nm (in Cc1ccccc1); 439 nm (in ClCCl).

`Cc1cc(C)c(-c2c3ccccc3c3ccc4cc5c(-c6c(C)cc(C)cc6C)c6ccccc6c6ccc7cc2c3c4c7c56)c(C)c1` displayed an absorption maximum (in ClCCl) of 607 nm.

Take `c1ccc(C[n+]2ccc(-c3cc[n+](Cc4ccccc4)cc3)cc2)cc1`: the absorption maximum (in CC#N) was determined as 260 nm.

`Cc1ccc(-c2oc3cccc4c5c(-c6ccc(C)cc6)c(=N)oc6cccc(c2c34)c65)cc1` displayed an absorption maximum (in ClC(Cl)Cl) of 400 nm.

For the compound `COc1ccc(-n2nc(C(=O)N3CCCC3)c(N3CCCC3)n2)cc1`, the absorption maximum came out at 328 nm (in CC#N); 332 nm (in CCCCCC); 328 nm (in CCO); 334 nm (in CN(C)C=O); 331 nm (in ClC(Cl)Cl).

On to `Cc1cc2c(o1)c(C)cc1ccc(=O)oc12`, for which the absorption maximum is, setting by setting: (in C1CCCCC1) 330 nm; (in C1COCCO1) 315 nm; (in CC#N) 315 nm; (in CCO) 305 nm; (in OCC(F)(F)F) 310 nm.

Where the note is “in ClC(Cl)Cl”, `CCCCCCN1C(=O)c2cccc3c(-c4ccc(-c5cccs5)s4)ccc(c23)C1=O` displayed an absorption maximum of 409 nm.

Compound `CCCCOc1c(C=C2N(C)c3ccccc3C2(C)C)c(=O)c1=O` had an absorption maximum (in CCO) of 425 nm.

Compound `Cc1cc(C)c(C2=C3C=C(/C=C/C(=O)OC(C)(C)C)C=[N+]3[B-](F)(F)n3cc(/C=C/C(=O)OC(C)(C)C)cc32)c(C)c1` yielded an absorption maximum (in ClCCl) of 580 nm.

As for `CN(C)CCNc1ccc([N+](=O)[O-])cc1[N+](=O)[O-]`, the absorption maximum (in C1CCCCC1) came out at 334 nm; the absorption maximum (in C1CCOC1) amounted to 352 nm; the absorption maximum (in C1COCCO1) was determined as 348 nm; the absorption maximum (in CC#N) stood at 352 nm; the absorption maximum (in CC(C)=O) was determined as 352 nm; the absorption maximum (in CCCCCC) was determined as 330 nm. In addition, the absorption maximum is, setting by setting: (in CCO) 348 nm; (in CCOC(C)=O) 347 nm; (in CN(C)C=O) 358 nm; (in CO) 350 nm; (in CS(C)=O) 363 nm; (in Cc1ccccc1) 347 nm. In addition, the absorption maximum is listed as 350 nm (in ClC(Cl)Cl) and 352 nm (in ClCCl).
